Drawing on ChEMBL document CHEMBL5360642, “Assimiloside A, a Glycolipid with Immunomodulatory Activity from the Northwestern Pacific Marine Sponge Hymeniacidon assimilis” (2023), this text covers Activity for one compound.

Assay [1] deals with RAW264.7. As to the kind of experiment: Immunomodulatory activity in mouse RAW264.7 cells assessed as stimulation of lysosomal activity at 0.01 to 10 uM incubated for 2 hrs by acridine orange based fluorescence microplate reader analysis relative to control. Format: functional. As to conditions: dose 0.01-10 µM.
For assay [2], the system named is RAW264.7. As to the kind of experiment: Induction of ROS production in mouse RAW264.7 cells assessed as increase in intracellular ROS formation at 1 uM incubated for 3 hrs by DCFH2-DA staining based assay relative to control. Format: functional, cell-based.
Assay [3] concerns RAW264.7. As to the kind of experiment: Induction of ROS production in mouse RAW264.7 cells assessed as increase in intracellular ROS formation at 10 uM incubated for 3 hrs by DCFH2-DA staining based assay relative to control. Format: functional.
For assay [4], the system named is RAW264.7. As to the kind of experiment: Induction of ROS production in mouse RAW264.7 cells assessed as increase in intracellular ROS formation at 0.01 to 0.1 uM incubated for 3 hrs by DCFH2-DA staining based assay relative to control. Format: functional. The settings on record: dose 0.01-0.1 µM.

SMILES strings stand for the structures. Active and inactive are the calls of the source. The calls are words filed in the database; no cut-off is given here.

`CC[C@@H](O)CCCCCCCCCC(CCCCCCCCCCC[C@@H]1CCC(=O)O1)O[C@@H]1O[C@H](CO[C@@H]2OC[C@@H](O)[C@H](O)[C@H]2O)[C@@H](O)[C@H](O)[C@H]1O[C@@H]1OC[C@@H](O)[C@H](O)[C@H]1O` (some centres undefined): the Activity is recorded as 25% in assay [1], 15% in assay [3] and 15% in assay [4]. For the same compound, the outcome in assay [2] was inactive.
